{
  "source": "patent US11474098B2",
  "about": "“Drug target for preventing pathologic calcium overload in cardiomyocytes and methods of screening for same” (THE TRUSTEES OF COLUMBIA UNIVERSITY IN THE CITY OF NEW YORK, priority 2017, dated 2022)",
  "key": {"CaV1.2 channels [1]": {"system": "CaV1.2 channels", "assay": "Whole-cell Ba2+ currents of adenovirus-infected cultured guinea pig ventricular myocytes", "type": "cell-based", "conditions": "control cells expressing GFP or YFP-tagged mutant (YWI/AAA) AID peptide; 1 μM forskolin", "text": "Replication deficient adenoviral vectors expressing AID-YFP and AIDmut-YFP were generated using the AdEasy Adenoviral Vector System (Agilent Technologies) according to the manufacturer's instructions. Briefly, sequences for AID-YFP and AIDmut-YFP were PCR-amplified and cloned into pShuttle-CMV vector. After linearization with PmeI, shuttle vectors were electroporated into BJ5183 cells containing pAdEasy-1 viral plasmid. Positive recombinants were amplified, linearized with Pac I, and transfected into AD-293 cells using the calcium phosphate precipitation method. Transfected cells were monitored for development of adenoviral plaques, after which the cells were freeze-thawed and the lysate used to infect a 10-cm dish of 90% confluent HEK293 cells. Viral expansion and purification was carried out as previously described (Colecraft et al. 2002).\nAdult guinea pig ventricular myocytes were isolated by enzymatic digestion using a Langendorff perfusion apparatuses, and cultured as previously described (Miriyala et al. 2008). […] Heart cells were infected 2-3 hours after plating with 5-20 μl of adenoviral vector stock (≅10^11-10^12 viral particles/ml).\nWhole-cell recordings of virally-infected cultured guinea pig ventricular myocytes were conducted at room temperature as previously described (Miriyala et al. 2008; Xu et al. 2010). […]"}, "CaV1.2 channels [2]": {"system": "CaV1.2 channels", "experimental": "Membrane currents from isolated mouse ventricular cardiomyocytes (O'Connell et al. 2007) were measured by the whole-cell patch-clamp method using a MultiClamp 700B amplifier and pCLAMP 10 software (Molecular Devices) as described (Yang et al. 2013). The pipette solution contained (in mM): 40 CsCl, 90 Cs gluconate, 10 BAPTA, 1 MgCl2, 4 Mg-ATP, 2 CaCl2, and 10 HEPES, adjusted to pH 7.2 with CsOH. After the isolated cardiomyocytes were adequately buffered with 10 mM BAPTA in the internal solution, the isolated cardiomyocytes were superfused with (in mM): 140 TEA-CI, 1.8 CaCl2, 1 MgCl2, 10 glucose, and 10 HEPES, adjusted to pH 7.4 with CsOH. For experiments in tsA-201 cells, TEA-CI was reduced to 130 mM, and BaCl2 (10 mM) was used instead of CaCl2. Pipette series resistances were usually <1 MΩ after 60% compensation. Leak currents and capacitance transients were subtracted by a P/4 protocol. Voltages were corrected for the liquid junction potential of −10 mV. To measure Ca^2+ peak currents, the cell membrane potential was held at −50 mV and stepped to +10 mV for 350 ms every 10 seconds. To evaluate the current-voltage (I-V) relationship for Ca^2+ currents, the same protocol was repeated with steps between −50 mV to +50 mV in 10 mV increments. All experiments were performed at room temperature, 22±1° C. The parameters of voltage-dependent activation were obtained using a modified Boltzmann distribution: I(V)=Gmax*(V−Erev)/[1+exp(Vmid−V)/Vc)], where I(V) is peak current, Gmax is maximal conductance, Erev is reversal potential, Vmid is the midpoint, and Vc is the slope factor.\nWe next determined the sensitivity of CaV1.2 channels containing either transgenic pWT α1C or AID-mutant α1C to PKA modulation."}, "CaV1.2 channels [3]": {"system": "CaV1.2 channels", "conditions": "Katchman et al. 2017; cited from earlier work"}, "[4]": {"system": "left ventricular contraction in isolated Langendorff-perfused hearts", "assay": "Ex vivo cardiac contractility, Langendorff-perfused hearts with left ventricular balloon", "set-up": "species or system mouse", "conditions": "for increase in contractility in response to isoproterenol: native CaV1.2 first inhibited with nisoldipine; for increase in cardiac contractility: 200 nM isoproterenol with 300 nM nisoldipine, paced at 400 beats per minute", "method": "Hearts from these mice are isolated and contractility is assessed by placing a balloon in the left ventricle.\nThe cannulated hearts were retrogradely perfused on a Langendorff system with a modified Krebs solution (118.5 mM NaCl, 25 mM NaHCO3, 4.7 mM KCl, 1.2 mM MgSO4, 1.2 mM KH2PO4, 11 mM glucose, 1.8 mM Ca^2+). Left ventricular pressure was measured using a balloon catheter connected to an APT-300 pressure transducer, which was connected to a Powerlab digitizer (ADInstruments). […] Peak LV pressure during the 3-minute period was used for the assessment of β-adrenergic agonist stimulation.\nWe then assessed the role of CaV1.2 modulation in β-adrenergic agonist-induced positive inotropy at the whole organ level by inserting a pressure-transduced balloon into the left ventricle of Langendorff-perfused transgenic mice hearts. This approach enabled measurement of cardiac contractility independent of vascular or systemic effects. Hearts were paced at 400 beats per minute to remove the potentially confounding effect of heart rate variability on contractility (Kushnir et al. 2014). […] By contrast, using the same experimental paradigm in hearts from β-less AID-mutant transgenic mice, the response to isoproterenol was nearly abolished, yielding an average increase in cardiac contractility of only 1.2-fold (FIG. 10H and FIG. 10I)."}, "isolated cardiomyocytes": {"system": "isolated cardiomyocytes", "assay": "Fractional shortening (sarcomere length) of field-stimulated isolated cardiomyocytes", "type": "cell-based, mouse", "conditions": "for increase in fractional shortening: 200 nM isoproterenol with 300 nM nisoldipine, 1-Hz", "method": "Myocytes were field stimulated at 1-Hz. Percent contraction of sarcomere length was measured using the SarcLen module of Ionoptix and calculated as the difference of shortest sarcomere length during a contraction subtracted from the relaxed sarcomere length, divided by the relaxed sarcomere length, all averaged over at least 8 contractions.\nWe next exploited the findings that transgenic β-less AID-mutant α1C channels are insensitive to PKA modulation to probe the specific role of CaV1.2 modulation in the positive inotropic effect of β-adrenergic agonists in both isolated cardiomyocytes and in the whole heart. […] By contrast, this response was severely diminished in cardiomyocytes expressing transgenic β-less AID-mutant α1C channels in which isoproterenol produced a relatively meager 25% increase in fractional shortening (FIG. 10B and FIG. 10C)."}, "phospholamban": {"system": "phospholamban", "assay": "Immunoblot of phospholamban Ser16 phosphorylation in cardiomyocytes", "type": "cell-based, mouse", "conditions": "AID-mutant transgenic mice cardiomyocytes; 200 nM isoproterenol", "method": "Cells were exposed to 200 nM isoproterenol. Protein extracts were size-fractionated on SDS-PAGE, transferred to nitrocellulose and blotted with anti-pSer16 phospho-specific antibody (upper blot), and anti-PLB antibody (lower blot). Representative of three similar experiments.\nCardiac lysates from 6-12-week-old doxycycline-fed transgenic mice were prepared from either whole hearts or isolated ventricular cardiomyocytes (Yang et al. 2013). Immunoprecipitations were performed in modified RIPA buffer consisting of 50 mM Tris HCl; pH 7.4, 150 mM NaCl, Triton X-100 (0.25%), 10 mM EDTA, 10 mM EGTA, 10 μM Calpain inhibitor I, 10 μM Calpain inhibitor II, and Complete Mini-tablets (1 per 7 ml), using anti-FLAG antibody (Sigma) overnight. Immune complexes were collected using protein A (Amersham) for 2 h, followed by extensive washing. Proteins were size-fractionated, transferred to nitrocellulose membranes and probed with anti-FLAG antibody (Sigma), anti-tubulin antibody (Santa Cruz), custom anti-α1C and anti-β2 antibodies (Yang et al. 2013), and phospholamban antibodies (Badrilla). Detection was performed with a CCD camera (Carestream Imaging), and ImageQuant software was used for quantification. […]"}},
  "note": "Read-outs that look alike come from different tables or passages of the source.",
  "data": [
    {"molecule": "C=C[C@@]1(C)CC(=O)[C@]2(O)[C@@]3(C)[C@@H](O)CCC(C)(C)[C@@H]3[C@H](O)[C@H](OC(C)=O)[C@@]2(C)O1", "note": "[forskolin]", "values": [
      {"measurement": "increase in whole-cell current amplitude", "setting": "CaV1.2 channels [1]", "result": "4- to 5 fold"},
      {"measurement": "increase of transgenic pWT α1C Ca2+ currents", "setting": "CaV1.2 channels [2]; transgenic pWT α1C cardiomyocytes, 10 μM forskolin, 300 nM nisoldipine", "result": "1.8+0.1 fold"}
    ]},
    {"molecule": "Nc1ncnc2c1nc(Br)n2C1OC2COP(O)(=S)OC2C1O", "note": "(stereo not drawn) [Rp-8-Br-cAMPS]", "values": [
      {"measurement": "inhibition of nisoldipine-resistant basal current", "setting": "CaV1.2 channels [2]; transgenic AID-mutant mice cardiomyocytes", "result": "did not inhibit"},
      {"measurement": "reversal of isoproterenol-mediated up-regulation of endogenous CaV1.2", "setting": "CaV1.2 channels [3]", "result": "~96", "unit": "%"}
    ]},
    {"molecule": "CC(C)NCC(O)c1ccc(O)c(O)c1", "note": "(stereo not drawn) [isoproterenol]", "values": [
      {"measurement": "increase in contractility in response to isoproterenol", "setting": "[4]; control mice", "result": "75-200%"},
      {"measurement": "increase in contractility in response to isoproterenol", "setting": "[4]; mutant mice (CaV1.2 lacking AID)", "result": "0-25%"},
      {"measurement": "increase in cardiac contractility", "setting": "[4]; pWT α1C hearts", "result": 3.3, "unit": "fold"},
      {"measurement": "increase in cardiac contractility", "setting": "[4]; β-less AID-mutant transgenic hearts", "result": 1.2, "unit": "fold"},
      {"measurement": "effect on relaxation of cardiomyocytes", "setting": "isolated cardiomyocytes; cardiomyocytes from both pWT and AID-mutant α1C transgenic mice", "result": "enhanced relaxation"},
      {"measurement": "increase in fractional shortening", "setting": "isolated cardiomyocytes; transgenic pWT α1C cardiomyocytes", "result": 100, "unit": "%"},
      {"measurement": "increase in fractional shortening", "setting": "isolated cardiomyocytes; β-less AID-mutant α1C cardiomyocytes", "result": 25, "unit": "%"},
      {"measurement": "phosphorylation of phospholamban at Ser16 in response to isoproterenol", "setting": "phospholamban", "result": "appropriately phosphorylated"},
      {"measurement": "shift of Vmid (V0.5) of steady-state activation", "setting": "CaV1.2 channels [2]; GFP-WT β2b cardiomyocytes, 200 nM isoproterenol", "result": "−7.0", "unit": "mV"},
      {"measurement": "increase of peak CaV1.2 current", "setting": "CaV1.2 channels [2]; GFP-WT β2 expressing cells, 200 nM isoproterenol", "result": "1.5±0.1", "unit": "fold"},
      {"measurement": "shift of Vmid (V0.5) of steady-state activation", "setting": "CaV1.2 channels [2]; GFP-mutant β2b cardiomyocytes, 200 nM isoproterenol", "result": "−7.5", "unit": "mV"},
      {"measurement": "increase of peak CaV1.2 current", "setting": "CaV1.2 channels [2]; GFP-mutant β2 expressing cells, 200 nM isoproterenol", "result": "1.6±0.1", "unit": "fold"},
      {"measurement": "shift of Vmid in the hyperpolarizing direction", "setting": "CaV1.2 channels [2]; transgenic pWT α1C cardiomyocytes, 200 nM isoproterenol", "result": 4.4, "unit": "mV"},
      {"measurement": "increase of nisoldipine-insensitive current", "setting": "CaV1.2 channels [2]; transgenic pWT α1C cardiomyocytes, 200 nM isoproterenol, 300 nM nisoldipine", "result": "1.9±0.1", "unit": "fold"}
    ]}
  ]
}
